Assay results published in patent US11198687B2, “Heteroaryl allosteric modulators of nicotinic acetylcholine receptors” (Merck Sharp & Dohme Corp., priority 2017, dated 2021).
Like-named read-outs stand apart in the source and are kept apart here.

Molecular target: human α7 nAChR (Homo sapiens, UniProt P36544)
Assay: Automated patch-clamp electrophysiology functional assay (Assay A)
Format: cell-based
Settings: IonFlux HT whole-cell population patch, HEK cell line stably expressing human RIC-3 and human α7, 40 μM acetylcholine
Procedure: The α7 nAChR positive allosteric modulator (PAM) activity of the present compounds may be tested using assays known in the art. […] The assay was performed using the IonFlux HT in a whole-cell, population patch configuration. See Golden et al. Assay Drug Dev. Technol. (2011) 9:608-619. The compounds were assessed for their ability to modulate the function of the human α7 nAChR stably expressed in a HEK cell line both in the presence, and in the absence of the natural α7 agonist acetylcholine. By performing a series of such measurements at different concentrations, the effective concentration of the α7 nAChR PAMs (EC50) was determined. See Spencer et al. Assay Drug Dev. Technol. (2012) 10:313-324.
Direct activation of α7 (agonism), and potentiation of acetylcholine-evoked α7 currents was determined as follows:
Automated Patch-Clamp Electrophysiology Functional Assay (Assay A)
Automated patch-clamp electrophysiology was performed using the IonFlux HT (Fluxion Biosciences Inc., San Francisco, Calif.) in the whole-cell, population patch configuration. Test compounds were assessed for their ability to modulate the function of the α7 nicotinic acetylcholine receptor both in the presence, and in the absence of the natural α7 agonist acetylcholine. A HEK cell line stably expressing both human RIC-3 and human α7 (PrecisION hnAChR α7/RIC-3, Eurofins Pharma, St. Charles, Mo.) was cultured in 175 cm^2 triple-layer tissue culture flasks to no more than 90% confluency in DMEM/F-12 growth media supplemented with 10% heat-inactivated fetal bovine serum, 1% non-essential amino acids, 0.625 μg/mL Puromycin, and 400 μg/mL Geneticin. Immediately prior to assay, cells were detached by first aspirating growth media, rinsing with Dulbecco's phosphate buffered saline, and then adding 10 mL of Accutase (Innovative Cell Technologies, San Diego, Calif.) to the flask and then incubating at 37° C. for 5 minutes. Detached cells were then recovered by the addition of 40 mL of CHO-serum-free media supplemented with 25 mM HEPES, and rocked gently in a 50 mL conical tube for 20 minutes prior to patch-clamp assay. […] The cell suspension was added to the cell inlet wells on an IonFlux HT population patch plate which had previously been rinsed and primed with deionized H2O. Test compounds were serially diluted in DMSO and then resuspended to the final test concentration in external recording solution, with, or without 40 μM acetylcholine added to the external recording solution; test compounds were then transferred to the lonFlux HT population patch plate. Internal recording solution (110 mM TrisPO4, 28 mM TrisBase, 0.1 mM CaCl2, 2 mM MgCl2, 11 mM EGTA, 4 mM MgATP) was added to the internal recording solution inlet wells on the IonFlux HT patch plate previously loaded with cells and test compounds, and the plate loaded into the IonFlux HT instrument. A protocol was executed on the IonFlux HT to trap the cells, break into the cells, and establish the whole-cell recording configuration; cells were voltage-clamped at a holding potential of −60 mV for the duration of the experiment, all experiments were conducted at room temperature, and the IonFlux HT injection pressure was 8 psi for solution applications. Upon establishing the whole-cell configuration, external recording solution was perfused into the recording chambers for 120 seconds and then 40 μM acetylcholine was applied for 1 second and immediately washed off with external recording solution for 60 seconds. The 40 μM acetylcholine-evoked α7 current served as the current response to which subsequent test compound effects, in the presence, or in the absence of 40 μM acetylcholine would be quantified relative to. Next, test compounds were evaluated at multiple concentrations for their ability to induce, or modulate α7 current responses; three concentrations of test compound were evaluated in ascending dose fashion per recording.

Chain of human α7 nAChR (P36544 23-502): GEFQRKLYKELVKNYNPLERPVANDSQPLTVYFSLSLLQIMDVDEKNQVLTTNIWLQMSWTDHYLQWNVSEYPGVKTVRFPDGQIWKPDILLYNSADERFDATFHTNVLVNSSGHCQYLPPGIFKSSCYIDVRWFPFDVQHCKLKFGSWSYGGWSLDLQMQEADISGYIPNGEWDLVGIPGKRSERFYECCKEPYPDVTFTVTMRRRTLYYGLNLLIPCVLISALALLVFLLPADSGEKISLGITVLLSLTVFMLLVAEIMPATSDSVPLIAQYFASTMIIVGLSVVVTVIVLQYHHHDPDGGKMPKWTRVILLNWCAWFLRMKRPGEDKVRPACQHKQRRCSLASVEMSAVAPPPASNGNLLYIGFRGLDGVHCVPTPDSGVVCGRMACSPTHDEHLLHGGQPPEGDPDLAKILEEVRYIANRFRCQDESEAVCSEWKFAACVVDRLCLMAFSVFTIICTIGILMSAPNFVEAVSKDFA

Compound	EC50 (read-out: α7 nAChR Potency)	EC50 (read-out: α7 nAChR EC50)
CC1(C)[C@H](c2ccc(S(N)(=O)=O)nc2)[C@H]1c1nc(-c2cccc(C(F)(F)F)c2)no1 [Example A10, 5-[(1R,3R)-2,2-Dimethyl-3-{3-[3-(trifluoromethyl)phenyl]-1,2,4-oxadiazol-5-yl}cyclopropyl]pyridine-2-sulfonamide]	500 to 5000 nM	
CC1(C)[C@H](c2ccc(S(N)(=O)=O)nc2)[C@H]1c1nc(C2CC(F)(F)C2)no1 [Example A11, 5-{(1R,3R)-3-[3-(3,3-Difluorocyclobutyl)-1,2,4-oxadiazol-5-yl]-2,2-dimethylcyclopropyl}pyridine-2-sulfonamide]	500 to 5000 nM	3000 nM
CC1(C)[C@H](c2ccc(S(N)(=O)=O)nc2)[C@H]1c1nc(C2CCC2)no1 [Example A12, 5-[(1R,3R)-3-(3-Cyclobutyl-1,2,4-oxadiazol-5-yl)-2,2-dimethylcyclopropyl]pyridine-2-sulfonamide]	500 to 5000 nM	
CC1(C)[C@H](c2ccc(S(N)(=O)=O)nc2)[C@H]1c1nc(CC2CC2)no1 [Example A13, 5-{(1R,3R)-3-[3-(Cyclopropylmethyl)-1,2,4-oxadiazol-5-yl]-2,2-dimethylcyclopropyl}pyridine-2-sulfonamide]	500 to 5000 nM	
CC(C)c1noc([C@@H]2[C@@H](c3ccc(S(N)(=O)=O)nc3)C2(C)C)n1 [Example A14, 5-{(1R,3R)-2,2-Dimethyl-3-[3-(propan-2-yl)-1,2,4-oxadiazol-5-yl]cyclopropyl}pyridine-2-sulfonamide]	500 to 5000 nM	570 nM
CC1(C)[C@H](c2ccc(S(N)(=O)=O)nc2)[C@H]1c1ncc(-c2ccccc2)o1 [Example A15, 5-[(1R,3R)-2,2-Dimethyl-3-(5-phenyl-1,3-oxazol-2-yl)cyclopropyl]pyridine-2-sulfonamide]	500 to 5000 nM	1600 nM
CC1(C)[C@@H](c2ccc(S(N)(=O)=O)nc2)[C@@H]1c1nc(-c2cccc(F)c2)no1 [Example B1, 5-{(1S,3S)-3-[3-(3-Fluorophenyl)-1,2,4-oxadiazol-5-yl]-2,2-dimethylcyclopropyl}pyridine-2-sulfonamide]	100 to 500 nM	310 nM
COc1ccc(Cl)cc1-c1noc([C@H]2[C@H](c3ccc(S(N)(=O)=O)nc3)C2(C)C)n1 [Example B2, 5-{(1S,3S)-3-[3-(5-Chloro-2-methoxyphenyl)-1,2,4-oxadiazol-5-yl]-2,2-dimethylcyclopropyl}pyridine-2-sulfonamide]	500 to 5000 nM	1700 nM
CC1(C)[C@@H](c2ccc(S(N)(=O)=O)nc2)[C@@H]1c1nc(-c2ccc(F)cc2F)no1 [Example B3, 5-{(1S,3S)-3-[3-(2,4-Difluorophenyl)-1,2,4-oxadiazol-5-yl]-2,2-dimethylcyclopropyl}pyridine-2-sulfonamide]	500 to 5000 nM	
CC1(C)[C@@H](c2ccc(S(N)(=O)=O)nc2)[C@@H]1c1nc(-c2cncc(C(F)(F)F)c2)no1 [Example B4, 5-[(1S,3S)-2,2-Dimethyl-3-{3-[5-(trifluoromethyl)pyridin-3-yl]-1,2,4-oxadiazol-5-yl}cyclopropyl]pyridine-2-sulfonamide]	500 to 5000 nM	2500 nM
CC1(C)[C@@H](c2ccc(S(N)(=O)=O)nc2)[C@@H]1c1nc(-c2cccc(C(F)(F)F)c2)no1 [Example B5, 5-[(1S,3S)-2,2-Dimethyl-3-{3-[3-(trifluoromethyl)phenyl]-1,2,4-oxadiazol-5-yl}cyclopropyl]pyridine-2-sulfonamide]	500 to 5000 nM	3000 nM
CC1(C)[C@@H](c2ccc(S(N)(=O)=O)nc2)[C@@H]1c1nc(C2CCCCC2)no1 [Example B6, 5-[(1S,3S)-3-(3-Cyclohexyl-1,2,4-oxadiazol-5-yl)-2,2-dimethylcyclopropyl]pyridine-2-sulfonamide]	100 to 500 nM	
CC1(C)[C@@H](c2ccc(S(N)(=O)=O)nc2)[C@@H]1c1nc(C2CCCC2)no1 [Example B7, 5-[(1S,3S)-3-(3-Cyclopentyl-1,2,4-oxadiazol-5-yl)-2,2-dimethylcyclopropyl]pyridine-2-sulfonamide]	100 to 500 nM	370 nM
CC1(C)[C@@H](c2ccc(S(N)(=O)=O)nc2)[C@@H]1c1nc(C2CC(F)(F)C2)no1 [Example B8, 5-{(1S,3S)-3-[3-(3,3-Difluorocyclobutyl)-1,2,4-oxadiazol-5-yl]-2,2-dimethylcyclopropyl}pyridine-2-sulfonamide]	500 to 5000 nM	
CC1(C)[C@@H](c2ccc(S(N)(=O)=O)nc2)[C@@H]1c1nc(C2CCC2)no1 [Example B9, 5-[(1S,3S)-3-(3-Cyclobutyl-1,2,4-oxadiazol-5-yl)-2,2-dimethylcyclopropyl]pyridine-2-sulfonamide]	500 to 5000 nM	620 nM
CC1(C)[C@@H](c2ccc(S(N)(=O)=O)nc2)[C@@H]1c1nc(CC2CC2)no1 [Example B10, 5-{(1S,3S)-3-[3-(Cyclopropylmethyl)-1,2,4-oxadiazol-5-yl]-2,2-dimethylcyclopropyl}pyridine-2-sulfonamide]	500 to 5000 nM	1600 nM
CC1(C)[C@@H](c2ccc(S(N)(=O)=O)nc2)[C@@H]1c1nc(C2CC2)no1 [Example B11, 5-[(1S,3S)-3-(3-Cyclopropyl-1,2,4-oxadiazol-5-yl)-2,2-dimethylcyclopropyl]pyridine-2-sulfonamide]	500 to 5000 nM	
CC(C)(C)c1noc([C@H]2[C@H](c3ccc(S(N)(=O)=O)nc3)C2(C)C)n1 [Example B12, 5-[(1S,3S)-3-(3-tert-Butyl-1,2,4-oxadiazol-5-yl)-2,2-dimethylcyclopropyl]pyridine-2-sulfonamide]	500 to 5000 nM	1600 nM
CC(C)c1noc([C@H]2[C@H](c3ccc(S(N)(=O)=O)nc3)C2(C)C)n1 [Example B13, 5-{(1S,3S)-2,2-Dimethyl-3-[3-(propan-2-yl)-1,2,4-oxadiazol-5-yl]cyclopropyl}pyridine-2-sulfonamide]	500 to 5000 nM	
CC1(C)[C@@H](c2ccc(S(N)(=O)=O)nc2)[C@@H]1c1ncc(C2CCCC2)o1 [Example B14, 5-[(1S,3S)-3-(5-Cyclopentyl-1,3-oxazol-2-yl)-2,2-dimethylcyclopropyl]pyridine-2-sulfonamide]	500 to 5000 nM	590 nM
CC1(C)[C@@H](c2ccc(S(N)(=O)=O)nc2)[C@@H]1c1ncc(C2CCCC2)s1 [Example B16, 5-[(1S,3S)-3-(5-Cyclopentyl-1,3-thiazol-2-yl)-2,2-dimethylcyclopropyl]pyridine-2-sulfonamide]	500 to 5000 nM	1500 nM
CC1(C)[C@H](c2nc(-c3ccccc3)no2)[C@H]1c1ncc(S(N)(=O)=O)s1 [Example D9, 2-[(1R,3R)-2,2-Dimethyl-3-(3-phenyl-1,2,4-oxadiazol-5-yl)cyclopropyl]-1,3-thiazole-5-sulfonamide]	500 to 5000 nM	1700 nM
CC1(C)[C@H](c2ccc(S(N)(=O)=O)cn2)[C@H]1c1nc(-c2cccc(F)c2)no1 [Example E1, 6-{(1R,3R)-3-[3-(3-Fluorophenyl)-1,2,4-oxadiazol-5-yl]-2,2-dimethylcyclopropyl}pyridine-3-sulfonamide]	500 to 5000 nM	4000 nM
CC1(C)[C@H](c2ccc(S(N)(=O)=O)cn2)[C@H]1c1nc(C2CCCC2)no1 [Example E2, 6-[(1R,3R)-3-(3-Cyclopentyl-1,2,4-oxadiazol-5-yl)-2,2-dimethylcyclopropyl]pyridine-3-sulfonamide]	500 to 5000 nM	3200 nM
CC1(C)[C@H](c2ccc(S(N)(=O)=O)cn2)[C@H]1c1nc(-c2ccccc2)no1 [Example E3, 6-[(1R,3R)-2,2-Dimethyl-3-(3-phenyl-1,2,4-oxadiazol-5-yl)cyclopropyl]pyridine-3-sulfonamide]	500 to 5000 nM	
